Test results: patent US8215314B2, “Photochemical tissue bonding” (The General Hospital Corporation, priority 2000, dated 2012)

Experiments:
[1] = system: corneal incision, rabbit eyes ex vivo; assay: IOP required to produce fluid leakage from corneal incision (IOPL) after PTB, ex vivo; conditions: 488 nm
[2] = Absorption maxima and absorption coefficients of photosensitizers; type: physicochemical; conditions: for absorption coefficient at the laser wavelength used: RB at 514 nm, Fl at 488 nm, MB at 661 nm, R-5-P at 488 nm, N-HPT at 351 nm
Text: The photosensitizers were used as received with the exception of N-HPT which was recrystallized twice from aqueous ethanol before use.

[3] = system: corneal incision, rabbit eyes ex vivo; assay: IOP required to produce fluid leakage from corneal incision (IOPL) after PTB, ex vivo; conditions: for mean IOPL: 4.5 mM, 351 nm
Protocol: PTB can be used to seal or repair a tissue, e.g., a wound, e.g., a corneal wound. This example illustrates the experimental procedure designed to test the efficacy of PTB, as described herein, using mammalian corneas ex vivo. Experiments were performed according to the following procedure.
Rabbit eyes were received on ice (Pel-Freez Biologicals) approximately 17-24 hours after sacrifice and enucleation. The eyes were kept on ice and used the same day. The eye to be studied was mounted on a plastic-covered polystyrene block and fixed in position by needles inserted through the extraocular muscles into the polystyrene. The eye was then placed under a dissecting microscope (Reichert Scientific Instruments, Ill.) allowing visualization of the treated area during the entire procedure. A 27 G needle was inserted parallel to the iris, 2 mm anterior to the limbus into clear cornea, and positioned above the lens in the anterior chamber. The needle was connected to both a blood pressure transducer (Harvard Apparatus, Mass.) and a mini-infuser 400 (Bard Harvard) via a T coupler. The pressure transducer consists of a transducer element that is hard wired to an amplifier box and uses a semi-disposable dome with an integral silicone rubber membrane. Pressure inside the dome is transmitted through the membrane to a plastic button whose motion is translated to a voltage. The voltage generated by the transducer amplifier combination is proportional to the […] intraocular pressure (IOP). Signals from the transducer amplifier were recorded using a Macintosh G3 Power book equipped with a PCMICA (DAQCARD—1200) data acquisition card (National Instruments, Tex.). Data acquisition was controlled using programs written using the LabView 4 software package (National Instruments, Tex.). The voltage from the transducer and amplifier was converted to pressure by calibrating with a standing manometer.
Experiments on individual eyes were initiated by increasing the IOP to 30-40 mm Hg, using water infusion at a rate of 1 mL per minute. An incision was made in the cornea, 1 mm from the limbus and parallel to the iris, using a 3.5 mm angled keratome (Becton Dickinson Co.). For each eye the IOP required to produce fluid leakage from the incision (IOPL) was recorded pre- and post-PTB treatment. A photosensitizer, dissolved in phosphate buffer solution (PBS, pH 7.2, Gibco BRL) was applied to the walls of the incision using a Gastight, 50 μl syringe (Hamilton Co.) with a 27 G needle.
Irradiations employed a continuous wave (CW) argon-ion laser (Innova 100; Coherent, Inc., Palo Alto, Calif.) at 488 nm (for Fl and R-5-P), 514.5 nm (for RB) or 351 nm (for NHPT). An argon-ion-pumped dye laser (CR-599; Coherent) with 4-dicyanomethylene-2-methyl-6-(p-dimethylaminostyryl)-4H-pyran dye (Exciton, Inc., Dayton, Ohio) was used for irradiation at 661 nm (for MB). Laser light was coupled into a 1 mm diameter quartz fiber and a 1 cm diameter spot on the tissue was created by using a combination of 1 and 2 inch focal length, S1-UV grade fused silica, biconvex lenses (Esco Products), mounted in a SM1 series cage assembly (Thorlabs, N.J.). The 1 cm diameter circular spot was sufficient to cover the entire incision and the optics were adjusted so that the laser light was incident on the cornea at an angle approximately 45° to the plane of the incision. Dose response curves were obtained by varying the duration of the irradiation at a constant irradiance. In separate experiments the effects of laser irradiance were investigated by comparison of the same delivered dose using different irradiances. The doses used ranged from 124 to 1524 J/cm^2 and the irradiances used were 0.64, 1.27, 2.55 and 3.86 W/cm^2. The laser exposure time varied from 33 seconds for the lowest dose using the highest irradiance to 26 minutes, 27 seconds for the highest dose using the lowest irradiance. The IOPL was recorded immediately following treatment. […]

SMILES	IOPL ([1]; 0.6 mM Fl, 762 J/cm^2 at 3.82 W/cm^2)	absorption maximum [2]	absorption coefficient at the laser wavelength used [2]	post PTB treatment IOPL value ([1]; 11 mM R-5-P, 762 and 1016 J/cm^2, 1.27-3.82 W/cm^2, p<0.05)	mean IOPL ([3]; 0.64 W/cm2, 254 J/cm2)	mean IOPL ([3]; 0.64 W/cm2, 508 J/cm2)	post-treatment IOPL ([3]; MB 3 mM, 661 nm, 0.64 W/cm^2, doses 508, 762 and 1016 J/cm^2)
O=C1OC2(c3ccc(O)cc3Oc3cc(O)ccc32)c2ccccc21 [Fl, fluorescein]	116±40 mm Hg	–	–	–	–	–	–
Cc1cc2nc3c(=O)[nH]c(=O)nc-3n(C[C@H](O)[C@H](O)[C@H](O)COP(=O)(O)O)c2cc1C [R-5-P, riboflavin-5-phosphate]	–	445 nm	4330 dm^3 mol^−1 cm^−1	significantly increased	–	–	–
On1ccccc1=S [N-HPT, N-hydroxypyridine-2-(1H)-thione]	–	314 nm	2110 dm^3 mol^−1 cm^−1	–	60±23 mm Hg	126±40 mm Hg	–
CN(C)c1ccc2nc3ccc(=[N+](C)C)cc-3sc2c1 [MB, methylene blue]	–	664 nm	15600 dm^3 mol^−1 cm^−1	–	–	–	did not increase
